In paper PMC10974828, “Identification of Novel Flavonoids and Ansa-Macrolides with Activities against Leishmania donovani through Natural Product Library Screening” (Pathogens, 2024):
Values joined by “and” are separate entries in the source; they are usually repeats but may differ in a detail not shown here. Equal values may be shown once. Read-outs that look alike come from different tables or passages of the source.

How the values were obtained:
[1] = tested on: L. donovani promastigotes; assay: L. donovani promastigote viability assay (resazurin); format: cell-based; settings: Leishmania donovani; 72 h exposure, resazurin readout, two independent experiments; read-out: L. donovani Promastigote Inhibition IC50
Method: The inhibition of L. donovani promastigote growth was assessed by measuring the conversion of resazurin to resorufin. The promastigotes were dispensed at a density of 5 × 10^4 L. donovani promastigotes per well into 384-well plates and exposed to the natural product library composed of 2562 molecules at 10 μM for 72 h. Following the incubation, resazurin sodium salt was added, and the plates were further incubated for 5 h before fixation using 4% paraformaldehyde. The results were then analyzed using a Victor3™ plate reader (PerkinElmer, Shelton, CT, USA) at an emission wavelength of 590 nm and an excitation wavelength of 530 nm. Amphotericin B and miltefosine served as reference drugs for inhibiting the growth of L. donovani promastigotes. The hits identified from the screening were confirmed by testing in a 10-point, 1/2 dilution manner starting from 400, 200, 100, or 50 μM (depending on the solubility and activity) in duplicates of two independent experiments to calculate the IC50 values.
(§1) All of the IC50 and the half-maximal cytotoxic concentration (CC50) values were calculated using two independent experiments. Outliers were excluded, and the dose–response curves were fitted using the GraphPad Prism V6.0 software (GraphPad Software, San Diego, CA, USA) by using a sigmoidal dose–response equation with a variable hill slope option.

[2] = tested on: L. donovani intracellular amastigotes; assay: Intracellular L. donovani amastigote assay in THP-1 cells (image-based); format: cell-based, Leishmania donovani; settings: for IC50: Leishmania donovani, amastigotes in PMA-treated THP-1 cells, 72 h, read-out: Intracellular L. donovani Inhibition IC50; for Selectivity Index (SI): THP-1 CC50 / amastigotes IC50
Method: (§2) PMA-treated THP-1 cells were seeded at 0.8 × 10^4 cells per well in a 384-well plate in RPMI-1640 complete medium supplemented with 10% FBS. After 48 h of incubation at 37 °C in the presence of 5% CO2, the L. donovani amastigotes, isolated from infected hamster liver, were added to the cell culture at a ratio of 10:1. The infected THP-1 cells were treated with screening compounds (the same set used in the promastigotes HTS) at 10 µM, with amphotericin B and miltefosine serving as positive controls and 0.5% DMSO as a negative control. After 72 h, the cells and parasites were washed, stained, and fixed with 5 µM DAPI and 4% PFA. Images were acquired through Operetta® CLS™ (PerkinElmer, Shelton, CT, USA), and the numbers of parasites, host cells, and infection ratios were quantified using the Columbus™ software (https://www.perkinelmer.com/product/image-data-storage-and-analysis-system-columbus, accessed on 7 February 2024) (PerkinElmer, Shelton, CT, USA). The hits identified from the screening were confirmed by testing in a 10-point, 1/2 dilution manner starting from 400, 200, 100, or 50 μM in duplicates of two independent experiments to calculate the IC50 values.
as §1

[3] = tested on: THP-1 cells; assay: Host cell cytotoxicity in the intracellular Leishmania assay (THP-1 cell ratio); format: cell-based, Human; settings: host THP-1 cells in the intracellular assay, 72 h
Method: as §2, §1

[4] = tested on: eukaryotic RNA polymerase; design: method as in PMID 32342856; settings: higher constant indicates lower affinity; cited from earlier work
[5] = tested on: L. donovani amastigotes; design: method as in PMID 28498323; settings: read-out: IC50 against L. donovani amastigotes; cited from earlier work
[6] = tested on: Trypanosoma brucei; design: method as in PMID 28498323; settings: read-out: IC50 against Trypanosoma brucei; cited from earlier work
[7] = tested on: T. cruzi; design: method as in PMID 28498323; settings: read-out: IC50 against T. cruzi; cited from earlier work
[8] = tested on: intracellular amastigotes; design: method as in PMID 37091674; settings: read-out: IC50 against intracellular amastigotes; cited from earlier work
[9] = tested on: hepatic parasites; design: method as in PMID 37091674; settings: murine model of visceral leishmaniasis; cited from earlier work
[10] = tested on: L. infantum; design: method as in PMID 32441133; settings: read-out: IC50 against L. infantum; cited from earlier work
[11] = tested on: L. donovani amastigotes; design: method as in PMID 30319238; settings: read-out: IC50 against L. donovani amastigotes; cited from earlier work
[12] = tested on: T. brucei; design: method as in PMID 30319238; settings: read-out: IC50 against T. brucei; cited from earlier work

Molecule | IC50 [1] | IC50 [2] | Selectivity Index (SI) [2] | THP-1 Cell Ratio CC50 [3] | further results
OC1C=C2CCN3Cc4cc5c(cc4C(C1O)C23)OCO5 (centres unmarked) [BMD-NP-00820] | 3.99 ± 0.4 µM | 1740 ± 270 nM | >28.7 | >50.00 µM | 
CO[C@H]1/C=C/O[C@@]2(C)Oc3c(C)c(O)c4c(O)c(cc(O)c4c3C2=O)NC(=O)/C(C)=C\C=C\[C@H](C)[C@H](O)[C@@H](C)[C@@H](O)[C@@H](C)[C@H](OC(C)=O)[C@@H]1C [Rifamycin] |  |  |  |  | binding constant for eukaryotic RNA polymerase relative to prokaryotic RNA polymerase [4]: 100 times
COc1ccc(NC2=C3NC(=O)C(C)=CC=CC(C)C(O)C(C)C(O)C(C)C(OC(C)=O)C(C)C(OC)C=COC4(C)Oc5c(C)c(OC(=O)c6ccc(C)cc6)c(c(c5C4=O)C2=O)C3=O)cc1 (centres unmarked) [BMD-NP-02085] | 1.76 ± 0.28 µM | 1760 ± 850 nM | 7.5 and 7.4 | 13.07 µM and 13.07 ± 0.56 µM | 
O[C@H]1[C@H]2c3cc4c(cc3CN3CCC(=C[C@@H]1O)[C@H]23)OCO4 [BMD-NP-01077, Lycorine] | 6.99 ± 0.74 µM | 2630 ± 570 nM | >19.0 | >50.00 µM | 
CCCCOc1ccc(C(=O)Oc2c(C)c3c4c5c2C(=O)C(=C(N2CCCCC2)C5=O)NC(=O)C(C)=CC=CC(C)C(O)C(C)C(O)C(C)C(OC(C)=O)C(C)C(OC)C=COC(C)(O3)C4=O)cc1 (centres unmarked) [BMD-NP-02070] | 29.9 ± 1.27 µM | 3340 ± 420 nM | >15.0 |  | 
CC(C)C1CC(=O)Oc2cc(O)c3c(=O)cc(-c4ccc(O)c(O)c4)oc3c21 (centres unmarked) [BMD-NP-01550] | 23.5 ± 0.52 µM | 3440 ± 640 nM | 6.1 | 20.84 ± 1.04 µM | 
COc1cc(C=C2Oc3c(ccc4c3C(c3ccnn3C(C)C)CC(=O)O4)C2=O)cc(OC)c1OC (centres unmarked) [BMD-NP-01586] | 36.3 ± 0.42 µM | 2970 ± 330 nM | 12.4 | 36.90 ± 1.13 µM | 
COC1C=COC2(C)Oc3c(C)c(OC(=O)c4ccccc4)c4c(c3C2=O)C(=O)C(N2CC(C)OC(C)C2)=C(NC(=O)C(C)=CC=CC(C)C(O)C(C)C(O)C(C)C(OC(C)=O)C1C)C4=O (centres unmarked) [BMD-NP-02084] | 2.53 ± 0.14 µM | 2120 ± 400 nM | 5.9 | 12.45 ± 1.02 µM | 
COc1ccc(CCOc2cc([C@@H]3CC(=O)Oc4cc(O)c5c(=O)cc(-c6ccc(O)c(O)c6)oc5c43)ccc2OC)cc1 [BMD-NP-02255] | 45.9 ± 1.09 µM | 4900 ± 650 nM |  | >50.00 µM | 
O=C1C[C@H](c2cccnc2)c2c(cc(O)c3c(=O)c(-c4ccc(Cl)cc4)coc23)O1 [BMD-NP-01559] | 19.08 ± 0.13 µM | 2370 ± 490 nM | >21.1 | > 50.00 µM | 
CCCCCCC/C=C/C=C/C(=O)NCCc1ccc(O)cc1 [dodeca-2E,4E-dienoic acid 4-hydroxy-2-phenylethylamide] |  |  |  |  | IC50 [5]: 13.3 µM; IC50 [6]: 7.17 µM; IC50 [7]: 5.97 µM
O=c1cc(-c2ccc(O)cc2)oc2cc(O)cc(O)c12 [apigenin, 4′,5,7-trihydroxyflavone] |  |  |  |  | IC50 [8]: 2300 nM; reduction in hepatic parasites [9]: 99.7%
COc1cc([C@@H]2CC(=O)Oc3ccc4c(=O)c(-c5ccccc5)coc4c32)ccc1O [BMD-NP-01555] | 12.9 ± 0.28 µM | 2200 ± 290 nM |  | >50.00 µM | 
CCCC1CC(=O)Oc2c(C(=O)C(C)C(C)O)c(O)c3c(c21)OC(C)(C)C=C3 (centres unmarked) [Calanolide E2] |  |  |  |  | IC50 [10]: 29.1 µM
COc1ccc([C@H]2CC(=O)Oc3ccc4c(c32)O/C(=C\c2cc(OC)c(OC)cc2OC)C4=O)cc1O [BMD-NP-01562] | 9.88 ± 0.71 µM | 5100 ± 340 nM | >9.8 | >50.00 µM | 
methyl-ent-3β-hydroxylabd-8(17)-en-15-oate |  |  |  |  | IC50 [11]: 7.82 µM; IC50 [12]: 3.84 µM
